Assay results from US9233167B2, “Oligomer-opioid agonist conjugates” (NEKTAR THERAPEUTICS, priority 2007, dated 2016).
Like-named read-outs stand apart in the source and are kept apart here.

Tests used:
[1] = molecular target: T1, recombinant human mu opioid receptor (Homo sapiens (Human), UniProt P35372); format: binding
Experimental: (§1) Radioligand displacement was measured using scintillation proximity assays (SPA).
(§2) Briefly, serial dilutions of the test compounds were placed in a 96-well plate to which were added SPA beads, membrane and radioligand. The assay conditions for each opioid receptor subtype are described in Table 10 below. The plates were incubated for 8 hours-overnight at room temperature, spun at 1000 rpm to pellet the SPA beads, and radioactivity was measured using the TopCount® microplate Scintillation counter. Specific binding at each concentration of test compound was calculated by subtracting the non-specific binding measured in the presence of excess cold ligand. IC50 values were obtained by non-linear regression of specific binding versus concentration curves and Ki values were calculated using Kd values that were experimentally pre-determined for each lot of membrane preparations.

[2] = tested on: CD-1 male mice; assay: Phenylquinone writhing analgesic assay; format: in vivo, mouse; settings: pretreatment 30 min before PQ
Experimental: Mice were treated according to standard protocols. Mice were given a single “pretreatment” dose of a compound lacking covalent attachment of a water-soluble, non-peptidic oligomer (i.e., non-PEG oligomer-modified parent molecule), a corresponding version comprising the compound covalently attached to a water-soluble, non-peptidic oligomer (i.e., the conjugate), or control solution (IV, SC, IP or orally) thirty minutes prior to the administration of the phenylquinone (PQ) solution. Each animal was given an IP injection of an irritant (phenylquinone, PQ) that induces “writhing” which may include: contractions of the abdomen, twisting and turning of the trunk, arching of the back, and the extension of the hindlimbs. Each animal was given an IP injection of PQ (1 mg/kg PQ, 0.1 mL/10 g bodyweight). After the injection, the animals were returned to their observation enclosure and their behavior was observed. Contractions were counted between 35 and 45 minutes after the “pretreatment”. The animals were used once. Each tested article was dosed at a range between 0.1 and 100 mg/kg (n=5-10 animals/dose).

[3] = molecular target: cloned human mu opioid receptor (Homo sapiens (Human), UniProt P35372); assay: cell-based
Experimental: (§3) The efficacy of the various PEG-opioid conjugates was measured by their ability to inhibit cAMP formation following receptor activation. Studies were conducted in CHO cells heterologously expressing the cloned human mu, kappa or delta opioid receptors. cAMP was measured using a cAMP HiRange homogenous time-resolved fluorescence assay (HTRF Assay), that is based on a competitive immunoassay principle (Cisbio, Cat.#62AM6PEC).
(§4) Briefly, suspensions of cells expressing either the mu, kappa or delta opioid receptors were prepared in buffer containing 0.5 mM isobutyl-methyl xanthine (IBMX). […] EC50 values were calculated for each compound from a sigmoidal dose-response plot of concentrations versus maximum response. To determine if the compounds behaved as full or partial agonists in the system, the maximal response at the highest tested concentrations of compounds were compared to that produced by a known full agonist.

[4] = molecular target: cloned human kappa opioid receptor (Homo sapiens (Human), UniProt P41145); format: cell-based
Experimental: as §3, §4

[5] = molecular target: recombinant human kappa opioid receptor (Homo sapiens (Human), UniProt P41145); format: binding
Experimental: as §1, §2

[6] = Intravenous pharmacokinetics in Sprague-Dawley rats
[7] = Oral pharmacokinetics in Sprague-Dawley rats; settings: male, rat, plasma, 5 mg/kg
[8] = in vivo; settings: male, Sprague-Dawley, rat, plasma, 5 mg/kg
[9] = in vivo; settings: male, Sprague-Dawley, rat, plasma, iv, 1 mg/kg
[10] = molecular target: recombinant human delta opioid receptor (Homo sapiens (Human), UniProt P41143); settings: Ki relative to nalbuphine
recombinant human delta opioid receptor, sequence (P41143 whole entry, looked up): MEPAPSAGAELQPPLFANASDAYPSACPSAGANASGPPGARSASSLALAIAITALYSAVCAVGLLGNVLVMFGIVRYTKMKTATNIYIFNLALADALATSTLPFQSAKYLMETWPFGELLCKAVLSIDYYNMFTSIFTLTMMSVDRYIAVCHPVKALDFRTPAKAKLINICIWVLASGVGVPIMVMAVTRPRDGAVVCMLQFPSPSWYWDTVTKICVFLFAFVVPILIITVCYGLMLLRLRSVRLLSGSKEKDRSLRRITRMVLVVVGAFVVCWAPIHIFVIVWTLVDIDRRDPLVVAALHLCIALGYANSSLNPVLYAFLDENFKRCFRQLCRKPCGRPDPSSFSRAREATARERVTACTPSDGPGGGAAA
Experimental: (§5) Using conventional receptor binding assay techniques, several molecules were assayed to determine binding activity at kappa, mu and delta opioid subtypes of opioid receptors.
(§6) Cells were plated in 24 well plates at a density of 0.2-0.3*10^6 cells/well and washed with assay buffer containing 50 mM Tris.HCl and 5 mM MgCl2 (pH 7.4). Competition binding assays were conducted in whole cells incubated with increasing concentrations of test compounds in the presence of appropriate concentration of radioligand. 0.5 nM ^3H Naloxone, 0.5 nM ^3H Diprenorphine and 0.5 nM ^3H DPDPE were used as the competing radioligands for mu, kappa and delta receptors respectively. Incubations were carried out for two hours at room temperature using triplicate wells at each concentration. At the end of the incubation, cells were washed with 50 mM Tris HCl (pH 8.0), solubilized with NaOH and bound radioactivity was measured using a scintillation counter.
(§7) Specific binding is determined by subtraction of the cpm bound in the presence of 50-100× excess of cold ligand. Binding data assays were analyzed using GraphPad Prism 4.0 and IC50 is generated by non-linear regression from dose-response curves.

[11] = molecular target: T1, recombinant human mu opioid receptor; format: binding; remark: listed apart in the source
Experimental: as §5, §6, §7

[12] = SPA, CHO-K1 membranes, [3H]DAMGO 6 nM
[13] = inhibition of cAMP formation, 3 μM forskolin, CHO cells
[14] = inhibition of cAMP formation, maximal response vs known full agonist
[15] = hydroxycodone series, IV 1 mg/kg, rats, Mean ± SD
[16] = male, Sprague-Dawley, rat, plasma, iv, 1 mg/kg

Row | Molecule | Ki [1, 12] [µM] | EC50 [3, 13] [µM] | MU OPIOID RECEPTOR % max effect [3, 14] [%] | Ki [1] [µM] | EC50 [3] [µM] | MU OPIOID RECEPTOR % max effect [3] [%] | AUCall [6, 15] [ng·min/mL] | AUCinf [6, 15] [ng·min/mL] | CL [6, 15] [mL/min/kg] | Cmax [6, 15] [ng/mL] | MRTlast [6, 15] [min] | T1/2(z) [6, 15] [min] | Vss [6, 15] [L/kg] | further results
1 | COCCO[C@H]1CC[C@@]2(O)[C@H]3Cc4ccc(OC)c5c4[C@@]2(CCN3C)[C@H]1O5 [α-6-mPEG1-O-Hydroxycodone, α-6-mPEG1-O-hydroxycodone] | 0.654 | 3.84 | 102 | – | – | – | – | – | – | – | – | – | – | ED50 (mPEGn-O-HydroxyCodone series) [2]: 6.064 mg/kg
2 | α-6-mPEG1-O-codeine | – | – | – | 1.82 | 8.57 | 80 | – | – | – | – | – | – | – | KAPPA OPIOID RECEPTOR % max effect [4]: 51%; Ki [5]: 54.7 µM
3 | COCCOCCOCCOCCOCCOCCO[C@H]1CC[C@@]2(O)[C@H]3Cc4ccc(OC)c5c4[C@@]2(CCN3C)[C@H]1O5 [α-6-mPEG6-O-Hydroxycodone, α-6-mPEG6-O-hydroxycodone] | 1.9 | 12.5 | 102 | – | – | – | 12600 ± 2370 | 13100 ± 2390 | 77.9 ± 14.4 | 445 ± 83.6 | 47.7 ± 1.41 | 62.2 ± 5.17 | 4.68 ± 0.938 | –
4 | COc1ccc2c3c1O[C@H]1[C@@H](O)C=C[C@H]4[C@@H](C2)N(C)CC[C@@]341 [Codeine] | – | – | – | – | – | – | – | – | – | – | – | – | – | Tmax [7]: 15 min; bioavailability ([8]; oral): 0.52%; AUC ([8]; po): 5.47 ng·h/mL; AUC(0-inf) ([8]; po): 7.18 ng·h/mL; Cmax ([8]; po): 6.24 ± 2.51 ng/mL; MRT last ([8]; po): 33.2 min; AUC [9]: 183 ng·h/mL; AUC(0-inf) [9]: 190 ng·h/mL; Cmax [9]: 469 ± 20.4 ng/mL; MRT last [9]: 40.2 min; Vd [9]: 4.14 ± 0.7 L/kg; clearance [9]: 89.7 ± 15.3 mL/min/kg
5 | COCCOCCOCCOCCO[C@H]1CC[C@@]2(O)[C@H]3Cc4ccc(OC)c5c4[C@@]2(CCN3C)[C@H]1O5 [α-6-mPEG4-O-Hydroxycodone, α-6-mPEG4-O-hydroxycodone] | – | – | – | 0.893 | 3.71 | 109 | – | 11600 ± 827 | 86.5 ± 6.36 | 537 ± 31.0 | 35.6 ± 2.88 | 43.6 ± 3.27 | 3.34 ± 0.113 | ED50 (mPEGn-O-HydroxyCodone series) [2]: 17.31 mg/kg
6 | α-6-mPEG6-O-codeine | – | – | – | 14.2 | 97.4 | 80 | – | – | – | – | – | – | – | KAPPA OPIOID RECEPTOR % max effect [4]: 21%; Ki [5]: > 160 µM
7 | COCCOCCOCCOCCO[C@H]1CC[C@@]2(O)[C@H]3Cc4ccc(O)c5c4[C@@]2(CCN3CC2CCC2)[C@H]1O5 [6-O-mPEG4-Nalbuphine, 6-O-mPEG4-nalbuphine] | – | – | – | – | – | – | – | – | – | – | – | – | – | Fold vs Nalbuphine At DELTA [10]: 0.47; Fold vs Nalbuphine At MU [11]: 1.23
8 | COCCOCCOCCOCCOCCOCCOCCO[C@H]1CC[C@@]2(O)[C@H]3Cc4ccc(OC)c5c4[C@@]2(CCN3C)[C@H]1O5 [α-6-mPEG7-O-Hydroxycodone, α-6-mPEG7-O-oxycodone] | 1.61 | 7.45 | 101 | – | – | – | 14300 ± 583 | 15800 ± 728 | 63.3 ± 2.99 | 489 ± 26.5 | 54.3 ± 0.372 | 87.0 ± 3.25 | 5.31 ± 0.139 | –
9 | COCCOCCOCCOCCOCCOCCOCCOCCOCCO[C@H]1CC[C@@]2(O)[C@H]3Cc4ccc(OC)c5c4[C@@]2(CCN3C)[C@H]1O5 [α-6-mPEG9-O-Hydroxycodone, α-6-mPEG9-O-hydroxycodone] | – | – | – | – | – | – | 16600 ± 2190 | 21000 ± 4230 | 48.9 ± 9.41 | 955 ± 149 | 52.7 ± 4.04 | – | 6.35 ± 0.349 | mean t1/2 value as multiple of that of the parent molecule ([6]; IV 1 mg/kg, rats): 3 times
10 | COCCOCCOCCO[C@H]1CC[C@@]2(O)[C@H]3Cc4ccc(OC)c5c4[C@@]2(CCN3C)[C@H]1O5 [α-6-mPEG3-O-Hydroxycodone, α-6-mPEG3-O-hydroxycodone] | 0.775 | 2.83 | 108 | – | – | – | 13800 ± 1050 | – | 71.7 ± 4.99 | 746 ± 2.08 | 32.5 ± 1.92 | 48.5 ± 7.83 | 2.62 ± 0.206 | –
11 | α-6-mPEG5-O-codeine | – | – | – | – | – | – | – | – | – | – | – | – | – | KAPPA OPIOID RECEPTOR % max effect [4]: 60%; Ki [5]: 59.1 µM
12 | α-6-mPEG9-O-codeine | – | – | – | 9.98 | 48.2 | 80 | – | – | – | – | – | – | – | –
13 | α-6-mPEG7-O-codeine | – | – | – | 9.96 | 44.7 | 75 | – | – | – | – | – | – | – | –
14 | COCCOCCO[C@H]1CC[C@@]2(O)[C@H]3Cc4ccc(OC)c5c4[C@@]2(CCN3C)[C@H]1O5 [α-6-mPEG2-O-Hydroxycodone, α-6-mPEG2-O-hydroxycodone] | 0.632 | 5 | 101 | – | – | – | 12000 ± 1610 | 12200 ± 1650 | 83.3 ± 10.8 | 513 ± 48.8 | 37.0 ± 2.60 | 44.6 ± 1.80 | 3.36 ± 0.298 | –
15 | α-6-mPEG4-O-codeine | – | – | – | 2.89 | 22.1 | 99 | – | – | – | – | – | – | – | Ki [5]: 97 µM
16 | COc1ccc2c3c1O[C@H]1C(=O)CC[C@@]4(O)[C@@H](C2)N(C)CC[C@]314 [Oxycodone, reference compound] | – | – | – | – | – | – | – | – | – | – | – | – | – | AUC [6, 16]: 213 ng·h/mL; AUC(0-inf) [6, 16]: 217 ng·h/mL; Cmax [6, 16]: 495 ± 56 ng/mL; MRT last [6, 16]: 37 min; clearance [6, 16]: 77.1 ± 6.26 mL/min/kg; half-life [6, 16]: 47 ± 3.99 min; AUC [7]: 75.3 ng·h/mL; Cmax [7]: 25.5 ± 1.86 ng/mL; MRT last [7]: 179 min; Tmax [7]: 15 min; Emax ([3]; CHO, read-out: MU OPIOID RECEPTOR % max effect): 95%
17 | COCCOCCOCCOCCOCCO[C@H]1CC[C@@]2(O)[C@H]3Cc4ccc(OC)c5c4[C@@]2(CCN3C)[C@H]1O5 [α-6-mPEG5-O-Hydroxycodone, α-6-mPEG5-O-hydroxycodone] | 1.86 | 5.04 | 108 | – | – | – | 16900 ± 1800 | 17700 ± 1990 | 57.0 ± 6.07 | – | 46.2 ± 1.86 | 62.1 ± 3.85 | 3.30 ± 0.184 | –
18 | COc1ccc2c3c1O[C@H]1C(O)CC[C@@]4(O)[C@@H](C2)N(C)CC[C@]314 (stereo partly drawn) [Hydroxycodone, α-6-hydroxycodone, reference compound] | – | 3.16 | – | – | – | – | – | – | – | – | – | – | – | –
19 | α-6-mPEG2-O-codeine | – | – | – | 1.38 | 5.15 | 75 | – | – | – | – | – | – | – | EC50 [4]: 40.1 µM; KAPPA OPIOID RECEPTOR % max effect [4]: 59%; Ki [5]: 22.6 µM
